Measurements as given in patent publication US8252940B2, “5-substituted-2-imino-thiazolidinone compounds and their use as inhibitors of bacterial infection” (University of Washington, priority 2008, dated 2012).

Tests used:
[1] = test system: type III secretion in S. typhimurium; experiment: microbe, parasite or virus in culture; format: cell-based, Salmonella enterica serovar Typhimurium
[2] = test system: S. typhimurium T3S secreted substrates; format: cell-based; details: Western blot
Ysc T3S system = experiment: Secretion profile of Y. enterocolitica Ysc T3S system; format: cell-based, Yersinia enterocolitica; details: 380 μM
Ysa T3S system = experiment: Secretion profile of Y. enterocolitica Ysa T3S system; format: cell-based, Yersinia enterocolitica; details: 380 μM
T3S needle complex (NC) = T3S needle complex (NC) (Salmonella typhimurium, UniProt P35672); format: cell-based, S. typhimurium
T3S needle complex (NC), sequence (P35672 25-562, one chain of several): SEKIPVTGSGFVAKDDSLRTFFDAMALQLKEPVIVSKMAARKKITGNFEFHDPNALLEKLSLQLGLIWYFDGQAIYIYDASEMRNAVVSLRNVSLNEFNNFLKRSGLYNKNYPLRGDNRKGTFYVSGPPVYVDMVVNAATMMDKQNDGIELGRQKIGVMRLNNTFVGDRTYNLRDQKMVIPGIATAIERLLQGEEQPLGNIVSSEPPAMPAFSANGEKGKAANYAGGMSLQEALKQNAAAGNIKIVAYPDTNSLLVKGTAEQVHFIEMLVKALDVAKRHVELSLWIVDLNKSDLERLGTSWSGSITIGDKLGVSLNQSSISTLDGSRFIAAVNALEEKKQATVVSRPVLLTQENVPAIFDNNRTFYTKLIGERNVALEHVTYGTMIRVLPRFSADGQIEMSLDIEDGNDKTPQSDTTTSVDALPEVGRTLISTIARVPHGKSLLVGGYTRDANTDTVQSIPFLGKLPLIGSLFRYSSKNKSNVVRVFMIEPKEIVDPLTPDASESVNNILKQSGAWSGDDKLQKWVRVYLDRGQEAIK

InvG, PrgH and PrgK = experiment: Abundance and membrane localization of NC proteins (Western blot of membrane fractions); format: cell-based, S. typhimurium; details: 380 μM
Procedure: FIG. 3A is an image of a Western blot of type III secretion NC proteins isolated from S. typhimurium grown in the presence (+) or absence (−) of 380 μM of Compound 1. FIG. 3B is an image of a Western blot of membrane fractions of S. typhimurium grown in the presence (+) or absence (−) of 380 μM of Compound 1. In the presence of Compound 1, InvG cellular levels and bacterial membrane localization were unaltered (FIGS. 3A and 3B). Similarly, protein levels and localization of the other NC proteins PrgH and PrgK were unchanged.

flagellar T3S system = experiment: Flagellar function: motility assay and flagellin secretion; format: cell-based, S. typhimurium; details: 380 μM
[3] = test system: P. aeruginosa twitching motility (T4P); experiment: Twitching assay; format: cell-based, Pseudomonas aeruginosa; details: 380 μM in motility plates
[4] = test system: Francisella virulence protein secretion; format: cell-based, Francisella novicida; details: 380 μM
[5] = test system: Pseudomonas syringae pv tomato DC3000; experiment: Hypersensitivity response (HR) in non-host tobacco plants; format: in vivo; details: 380 μM, overlapping infiltration, compared with solvent alone; 24 hours
Text: Inhibition of T3S-dependent pathogenesis of the plant pathogen, Pseudomonas syringae pv tomato DC3000 for tobacco. The bacterial plant pathogen Pseudomonas syringae pv tomato DC3000 requires T3S of virulence determinants to cause disease. The hypersensitivity response (HR) elicited by P. syringae in non-host tobacco plants depends upon a functional T3S system, representing an established virulence model for this pathogen. To determine the effect of Compound 1 on P. syringae pathogenesis for plants, overlapping infiltrations of P. syringae and Compound 1 were performed. P. syringae was inoculated on non-host tobacco plants and monitored for HR. Bacterial inoculations partially overlapped inoculations of either 380 μM of Compound 1 or the solvent DMSO. HR was measured by tissue collapse of plants cells in the overlapping region.
Therefore, these compounds, which blocked disease in an important model of plant pathogenesis, may have utility in preventing disease of plants.

bone marrow macrophages = experiment: Cytotoxicity of compound added directly to macrophages (LDH release)
[6] = test system: T2-dependent secretion of elastase; experiment: Elastolytic activity assay of culture supernatants (elastin Congo red); details: 380 μM; 18 hour culture (PAO1-C); untreated PAO1 1.881, pilD 0.098
[7] = test system: invF, prgH, and sipA genes; experiment: Transcriptional reporter fusions of T3S genes to lacZ, β-Galactosidase activity; details: cultures grown in presence vs absence of compound
[8] = test system: bone marrow macrophages infected with S. typhimurium; experiment: S. typhimurium T3-dependent cytotoxicity of bone marrow macrophages (LDH release); details: bacteria grown in presence of compound; multiplicity of 40; 40% without compound

COc1cc(/C=C2\S/C(=N\c3ccccc3)N(c3ccccc3)C2=O)cc(OC)c1O [Compound 1]
inhibition of known T3S substrates ([1]; 380 uM): complete inhibition | % Secretion ([1]; type III secretion in S. typhimurium, SipA secretion by Western blot): 0 ± 0% | secretion of SipA and SspH1 expressed from the T3S-independent lac promoter [2]: Neither of these proteins was secreted | amount of T3 secreted proteins SipA, B, and C ([2]; cultures grown in presence of compound): marked decrease | Yop proteins in culture supernatants (Ysc T3S system): absent | Ysp proteins in culture supernatants (Ysa T3S system): absent | NC proteins in isolated needle complexes (T3S needle complex (NC); 380 μM, Western blot): overall reduction | NC number on the cell surface (T3S needle complex (NC); electron micrographs of osmotically shocked cells): marked reduction | InvG cellular levels and bacterial membrane localization (InvG, PrgH and PrgK): unaltered | protein levels and localization of PrgH and PrgK (InvG, PrgH and PrgK): unchanged | S. typhimurium motility (flagellar T3S system): unaffected | secretion of flagellin (flagellar T3S system): unaltered | P. aeruginosa twitching motility [3]: significantly reduced | secretion of the known Francisella virulence proteins [4]: inhibited secretion | ability of P. syringae to elicit HR [5]: reduced ability to elicit HR | lysis of macrophages exposed to compound alone (bone marrow macrophages): did not lyse | OD495, elastolytic activity of culture supernatant [6]: 0.437 | β-Galactosidase activity of invF, prgH, sipA lacZ fusions [7]: similar | caspase-1 dependent cell death of macrophages [8]: 0.5%
